Converted amounts (≈) assume the structure as drawn. A value given as a limit tells only on which side of the number the result lay.

The results in this text go back to ChEMBL document CHEMBL3994625, “Crystal structures, binding interactions, and ADME evaluation of brain penetrant N-substituted indazole-5-carboxamides as subnanomolar, selective monoamine oxidase B and dual MAO-A/B inhibitors” (Eur J Med Chem, 2017).

For one data set, the species on record is Homo sapiens. Briefly: Selectivity index, ratio of IC50 for recombinant human MAOA to IC50 for recombinant human MAOB.
Data set [1] is described as follows: n-octanol-phosphate buffer distribution coefficient, log D of the compound at pH 2 after 90 mins by shake-flask method. In kind it is physicochemical.
A short description of data set [2]: Effective permeability of the compound at pH 7.4 at 200 uM after 4 hrs by PAMPA-BBB assay. The note with it: read-out: Peff. It counts as physicochemical.
Data set [3] can be described thus: physchem. The note with it: phosphate buffer, pH 5.5.
Data set [4] is described as follows: physchem. As to conditions: phosphate buffer, pH 7.4.
A short description of data set [5]: Effective permeability of the compound at pH 5.5 at 200 uM after 4 hrs by PAMPA-GI assay. In kind it is physicochemical. The note with it: read-out: Peff.
Data set [6] is described as follows: n-octanol-phosphate buffer distribution coefficient, log D of the compound at pH 5.5 after 90 mins by shake-flask method. In kind it is physicochemical.
Data set [7] can be described thus: Effective permeability of the compound at pH 2 at 200 uM after 4 hrs by PAMPA-GI assay. In kind it is physicochemical. The note with it: read-out: Peff.
Data set [8] can be described thus: Effective permeability of the compound at pH 7.4 at 200 uM after 4 hrs by PAMPA-GI assay. The note with it: read-out: Peff. It counts as physicochemical.
A short description of data set [9]: physchem. The note with it: phosphate buffer, pH 2.
A short description of data set [10]: n-octanol-phosphate buffer distribution coefficient, log D of the compound at pH 7.4 after 90 mins by shake-flask method. In kind it is physicochemical.
For data set [11], the target named is T1, Amine oxidase [flavin-containing] B (Homo sapiens, UniProt P27338).
T1 sequence (P27338 whole entry): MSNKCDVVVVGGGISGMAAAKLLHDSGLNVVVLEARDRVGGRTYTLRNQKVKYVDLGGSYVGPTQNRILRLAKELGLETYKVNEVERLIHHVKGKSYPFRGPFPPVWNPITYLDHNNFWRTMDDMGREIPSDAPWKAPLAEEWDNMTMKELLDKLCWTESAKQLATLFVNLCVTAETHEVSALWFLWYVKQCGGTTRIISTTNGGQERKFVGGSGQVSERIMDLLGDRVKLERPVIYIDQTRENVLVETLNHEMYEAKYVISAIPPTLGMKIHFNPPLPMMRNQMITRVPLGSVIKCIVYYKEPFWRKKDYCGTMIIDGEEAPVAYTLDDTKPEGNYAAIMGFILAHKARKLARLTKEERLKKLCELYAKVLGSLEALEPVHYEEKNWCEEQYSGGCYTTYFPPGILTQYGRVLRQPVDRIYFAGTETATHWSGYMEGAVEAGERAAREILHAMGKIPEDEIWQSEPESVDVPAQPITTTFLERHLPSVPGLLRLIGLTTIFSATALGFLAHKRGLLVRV
Briefly: biochemical.
Description: Inhibition of recombinant human MAOB expressed in baculovirus-infected BTI insect cells using p-tyramine as substrate measured for 45 mins in presence of MAOA inhibitor clorgyline by continuous fluorescence-based method

For data set [12] the following is noted: buffer, pH 7.4, […], 500 µM.
Data set [13] addresses T2, Amine oxidase [flavin-containing] A (Homo sapiens, UniProt P21397).
T2 sequence (P21397 whole entry): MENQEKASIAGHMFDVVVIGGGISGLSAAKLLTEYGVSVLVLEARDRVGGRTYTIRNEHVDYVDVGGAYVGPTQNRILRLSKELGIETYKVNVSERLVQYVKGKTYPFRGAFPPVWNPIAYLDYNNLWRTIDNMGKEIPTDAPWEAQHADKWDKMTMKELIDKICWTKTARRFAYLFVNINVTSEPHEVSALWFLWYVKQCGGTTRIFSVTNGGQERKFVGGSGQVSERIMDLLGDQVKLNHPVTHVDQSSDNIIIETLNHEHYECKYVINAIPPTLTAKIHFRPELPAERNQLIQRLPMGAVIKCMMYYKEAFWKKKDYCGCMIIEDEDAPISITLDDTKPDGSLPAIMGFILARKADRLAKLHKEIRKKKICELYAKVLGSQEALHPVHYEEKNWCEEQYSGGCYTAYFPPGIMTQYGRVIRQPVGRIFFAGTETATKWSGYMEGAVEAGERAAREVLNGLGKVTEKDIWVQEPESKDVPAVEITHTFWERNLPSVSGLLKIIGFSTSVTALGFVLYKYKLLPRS
Kind of data set: biochemical.

The conditions of data set [14]: buffer, pH 2, […], 500 µM.
For data set [15] the following is noted: buffer, pH 5.5, […], 500 µM.
For data set [16], the target named is T3, Amine oxidase [flavin-containing] B (Rattus norvegicus, UniProt P19643).
T3 sequence (P19643 whole entry): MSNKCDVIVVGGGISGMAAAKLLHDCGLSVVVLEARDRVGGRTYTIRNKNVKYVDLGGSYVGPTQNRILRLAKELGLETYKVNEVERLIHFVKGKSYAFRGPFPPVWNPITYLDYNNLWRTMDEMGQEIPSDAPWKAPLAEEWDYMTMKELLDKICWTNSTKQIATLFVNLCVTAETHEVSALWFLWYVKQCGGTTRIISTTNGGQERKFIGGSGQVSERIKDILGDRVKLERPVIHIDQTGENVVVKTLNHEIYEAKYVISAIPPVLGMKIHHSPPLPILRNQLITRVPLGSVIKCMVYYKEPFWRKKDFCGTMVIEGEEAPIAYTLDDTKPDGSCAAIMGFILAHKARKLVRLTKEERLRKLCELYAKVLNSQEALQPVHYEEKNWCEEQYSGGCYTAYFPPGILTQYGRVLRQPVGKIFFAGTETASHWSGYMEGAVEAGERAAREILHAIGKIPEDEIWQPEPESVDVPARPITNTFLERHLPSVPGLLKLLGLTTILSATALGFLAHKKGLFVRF
Briefly: Inhibition of MAOB in Sprague-Dawley rat liver mitochondria using p-tyramine as substrate measured for 45 mins in presence of MAOA inhibitor clorgyline by continuous fluorescence-based method.

Data set [17] deals with T4, Amine oxidase [flavin-containing] A (Rattus norvegicus, UniProt P21396).
T4 sequence (P21396 whole entry): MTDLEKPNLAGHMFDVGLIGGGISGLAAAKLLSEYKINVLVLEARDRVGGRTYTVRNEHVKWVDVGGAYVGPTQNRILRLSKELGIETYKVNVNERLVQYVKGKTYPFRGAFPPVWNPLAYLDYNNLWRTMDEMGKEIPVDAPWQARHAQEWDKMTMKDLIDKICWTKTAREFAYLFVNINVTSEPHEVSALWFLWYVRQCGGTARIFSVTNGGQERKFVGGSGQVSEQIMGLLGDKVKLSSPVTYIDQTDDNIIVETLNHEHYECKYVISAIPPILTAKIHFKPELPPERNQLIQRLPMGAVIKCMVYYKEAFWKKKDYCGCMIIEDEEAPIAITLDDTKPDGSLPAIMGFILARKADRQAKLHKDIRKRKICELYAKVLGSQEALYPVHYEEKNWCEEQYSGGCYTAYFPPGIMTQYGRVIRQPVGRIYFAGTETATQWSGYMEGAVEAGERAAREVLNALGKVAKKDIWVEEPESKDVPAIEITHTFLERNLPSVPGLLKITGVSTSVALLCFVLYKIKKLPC

Consider `O=C(Nc1ccc(Cl)c(Cl)c1)c1ccc2[nH]ncc2c1`, for which the Ratio IC50 in the data set listed under Homo sapiens is 17100.

Turning to `Cn1ncc2cc(C(=O)Nc3ccc(F)c(Cl)c3)ccc21`, the logD at […] in [1] was determined as 2.39; in [6], 2.52. For the same compound, the Papp at 4 h, 200 µM in data set [2] stood at 37.6 ×10⁻⁶ cm/s; in [5] it was 29.5 ×10⁻⁶ cm/s; in data set [7], 27.2 ×10⁻⁶ cm/s; in data set [8], 31.7 ×10⁻⁶ cm/s. In addition, the solubility (kinetic) at […], 500 µM was 69.1 µM (≈ 21 µg/mL) in the data set “physchem [3]”, 77.4 µM (≈ 23.5 µg/mL) in the data set “physchem [4]” and 57.5 µM (≈ 17.5 µg/mL) in “physchem [9]”.

For `Cn1cc2cc(C(=O)Nc3ccc(F)c(Cl)c3)ccc2n1`, the values for the logD at […] in data set [1], in data set [10] and in data set [6] were 3.24, 2.64 and 2.55, respectively. The Papp at 4 h, 200 µM in data set [2] was found to be 17.2 ×10⁻⁶ cm/s; in [5], 9.11 ×10⁻⁶ cm/s; in [7] it was 8.16 ×10⁻⁶ cm/s; in data set [8] it was 9.35 ×10⁻⁶ cm/s. The kinetic solubility at […], 500 µM was 421 µM (≈ 128 µg/mL) in “physchem [3]”, 441 µM (≈ 134 µg/mL) in the data set “physchem [4]” and 439 µM (≈ 133 µg/mL) in the data set “physchem [9]”. Moreover, the affinity in [11], expressed as Ki, was 3.57 nM. Besides, the entries for the “log(Kinetic_solubility)” value in data set [12], in data set [14] and in data set [15] were -3.36, -3.36 and -3.38, respectively. In addition, half-maximal inhibition in data set [13] (IC50) was put at 8.13 nM. Besides, in the data set listed under Homo sapiens, the Ratio IC50 came to 70.

With `O=C(Nc1ccccc1)c1ccc2[nH]ncc2c1`, the Ratio IC50 in the data set filed under Homo sapiens was > 86.

On to `COCCn1ncc2cc(C(=O)Nc3ccc(Cl)c(Cl)c3)ccc21`, for which the IC50 in data set [16] was 3.82 nM; in data set [17], > 10000 nM; in data set [11], 1.08 nM; in data set [13], 2870 nM. The same compound yielded a Ki in [11] of 0.48 nM. Besides, in the data set filed under Homo sapiens, the Ratio IC50 was > 2660.

On to `Cn1ncc2cc(C(=O)Nc3ccc(Cl)c(Cl)c3)ccc21`, for which the Papp at 4 h, 200 µM in data set [2] was determined as 22.3 ×10⁻⁶ cm/s; in data set [5], 16.8 ×10⁻⁶ cm/s; in [7] it was 18.3 ×10⁻⁶ cm/s; in [8], 18.6 ×10⁻⁶ cm/s. In addition, the values for the kinetic solubility at […], 500 µM in “physchem [3]”, in “physchem [4]” and in the data set “physchem [9]” were 3.04 µM (≈ 0.973 µg/mL), 3.51 µM (≈ 1.12 µg/mL) and 4.07 µM (≈ 1.3 µg/mL), respectively. The “log(Kinetic_solubility)” value in [12] was -5.45; in [14], -5.39; in data set [15] it was -5.52.

On to `COCCc1ccc(OCC(O)CNC(C)C)cc1` (stereo unspecified) [METOPROLOL], for which the logD at […] in [1] was -2.46; in data set [10] it was -0.37; in data set [6], -0.76.

Consider `Cn1ncc2cc(C(=O)Nc3ccc(F)c(F)c3)ccc21`, for which the Ratio IC50 in the data set listed under Homo sapiens came to 6580.

Take `Cn1cc2cc(C(=O)Nc3ccc(Cl)c(Cl)c3)ccc2n1`: the logD at […] in data set [1] turned out to be 2.49; in [10] it was 2.97; in [6] it was 2.54. The Papp at 4 h, 200 µM in [2] was 29 ×10⁻⁶ cm/s; in data set [5], 16.1 ×10⁻⁶ cm/s; in [7], 14.5 ×10⁻⁶ cm/s; in [8], 17.6 ×10⁻⁶ cm/s. The solubility (kinetic) at […], 500 µM turned out to be 50 µM (≈ 16 µg/mL) in the data set “physchem [3]”, 55.9 µM (≈ 17.9 µg/mL) in the data set “physchem [4]” and 57.5 µM (≈ 18.4 µg/mL) in “physchem [9]”. Moreover, the Ki in [11] stood at 0.64 nM. In addition, the entries for the “log(Kinetic_solubility)” value in data set [12], in data set [14] and in data set [15] were -4.25, -4.24 and -4.3, respectively.

For the compound `O=C(Nc1ccc(F)c(F)c1)c1ccc2[nH]ncc2c1`, the pH-dependent lipophilicity (logD) at […] in [1] amounted to 2.17; in data set [6], 1.94. In addition, the Papp at 4 h, 200 µM in [2] was 8.15 ×10⁻⁶ cm/s; in [5], ≤ 0.59 ×10⁻⁶ cm/s; in data set [7], ≤ 0.59 ×10⁻⁶ cm/s; in data set [8], ≤ 0.59 ×10⁻⁶ cm/s. Moreover, the solubility (kinetic) at […], 500 µM amounted to 62.7 µM (≈ 17.1 µg/mL) in the data set “physchem [3]”, 60.7 µM (≈ 16.6 µg/mL) in the data set “physchem [4]” and 61.1 µM (≈ 16.7 µg/mL) in “physchem [9]”. The “log(Kinetic_solubility)” value in data set [12] was -4.22; in data set [14] it was -4.21; in data set [15] it was -4.2. For the same compound, in [13], half-maximal inhibition (IC50) was put at 6.61 nM. Also, in the data set listed under Homo sapiens, the Ratio IC50 was found to be 6290.

As to `Cn1cc2cc(C(=O)Nc3ccc(F)c(F)c3)ccc2n1`, in the data set filed under Homo sapiens, the Ratio IC50 was found to be 20.
